Activity calls are given as the source filed them. No cut-off for these calls is given here.

The test system of test [1] is MGC-803. Briefly: Cell cycle arrest in human MGC-803 cells assessed as accumulation of cells at S phase at 5 uM measured after 24 hrs by Flowcytometry assay (reference value: 36.51%). The class given is functional.
Test [2] addresses T1, NEDD8-activating enzyme E1 regulatory subunit (Homo sapiens) (UniProt Q13564).
T1 sequence (whole entry): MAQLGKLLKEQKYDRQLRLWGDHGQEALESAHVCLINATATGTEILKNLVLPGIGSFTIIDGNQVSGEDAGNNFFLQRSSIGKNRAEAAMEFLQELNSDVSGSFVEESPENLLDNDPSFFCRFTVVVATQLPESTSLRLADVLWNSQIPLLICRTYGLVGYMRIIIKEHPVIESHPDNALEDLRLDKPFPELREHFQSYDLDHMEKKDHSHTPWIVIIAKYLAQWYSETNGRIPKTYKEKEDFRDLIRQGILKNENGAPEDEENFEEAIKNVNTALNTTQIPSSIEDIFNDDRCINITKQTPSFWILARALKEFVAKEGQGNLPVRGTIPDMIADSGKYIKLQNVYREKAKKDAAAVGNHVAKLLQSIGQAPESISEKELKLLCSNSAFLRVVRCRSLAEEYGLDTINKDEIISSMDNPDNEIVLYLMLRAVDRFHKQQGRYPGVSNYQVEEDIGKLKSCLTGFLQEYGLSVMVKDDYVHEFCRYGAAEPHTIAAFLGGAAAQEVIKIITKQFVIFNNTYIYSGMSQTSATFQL
Briefly: Inhibition of NAE-mediated neddylation in human MGC-803 cells assessed as cullin4A-Nedd8 adduct formation at 2.5 to 7.5 uM measured after 24 hrs by western blot assay. The format is cell-based. To be noted: dose 2.5-7.5 µM. (In western blotting, separated proteins are transferred to a membrane and probed.)

Test [3] deals with HGC-27. Briefly: Induction of apoptosis in human HGC-27 cells assessed as viable cells at 6 uM measured after 48 hrs by AnnexinV/FITC staining based flow cytometry method (reference value: 93.18%). The class given is functional. To be noted: read-out: Activity. (In general: Flow cytometry measures light scatter and fluorescence of single cells or particles in a stream.)
The subject of test [4] is HGC-27. The test can be described thus: Induction of apoptosis in human HGC-27 cells assessed as ROS levels at 6 uM measured after 24 hrs by DCFH-DA staining based flow cytometry assay (reference value: 6.8%). The class given is functional.
For test [5], the system named is MGC-803. Briefly: Antiproliferative activity against human MGC-803 cells assessed as inhibition of cell proliferation at 0.39 to 50 uM measured upto 72 hrs by MTT assay. The format is functional, cell-based. The following applies: dose 0.39-50 µM, time hrs <=72. (In general: Tetrazolium dyes change colour on reduction, which living cells bring about.)
Test [6] deals with MGC-803. The test can be described thus: Induction of apoptosis in human MGC-803 cells assessed as reduction of mitochondrial membrane potential at 2.5 uM measured after 24 hrs by JC-1 staining based Flowcytometry assay (reference value: 3.8%). The format is functional. Further details: scale not given: the % may be the effect or the level left.

With `CCCCCc1ccc(NC(=O)C2CCN(C/C=C/c3ccccc3)CC2)cc1`, the Activity in the test with MGC-803 [1] is 33.81%; in the test with HGC-27 [4], 14.5%; with MGC-803 [5], “Dose-Dependent Effect”; in the test on MGC-803 [6], 4%. The inhibition entry in test [2] is “inactive”. Also, the viability at 6 µM in the test with HGC-27 [3] worked out at 45.8%.

Source of the values: ChEMBL document CHEMBL5038615, “Discovery of a cinnamyl piperidine derivative as new neddylation inhibitor for gastric cancer treatment” (Eur J Med Chem, 2021).
